{"source": "patent US4098823A", "about": "“Monospiroalkyl derivatives of prostaglandins” (Miles Laboratories, Inc., priority 1977, dated 1978)", "key": {"[1]": {"tested_on": "Femoral Blood Flow", "test": "Effects on Femoral Blood Flow in the Dog", "type": "in vivo", "details": "anesthetized mongrel dog, intraarterial, 0.001 to 10 mcg", "method": "The peripheral vasodilator or constrictor effects of these compounds were determined in mongrel dogs of either sex, weighing between 10 and 20 kg anesthestized intravenously with 35 mg/kg of sodium pentobarbital. An external iliac artery was dissected immediately above the femoral arch for a length of approximately 5 cm and a previously calibrated, non-connulating electromagnetic flowmeter sensor with a lumen between 2.5 and 3.5 mm was placed snugly around the vessel. Cannulas were placed in a branch of the artery arising distally to the location of the flowmeter sensor for intraarterial drug administrations, in the contralateral femoral artery for systemic blood pressure recordings and in the trachea for artificial respiration with room air. Femoral blood flow and systemic blood pressure were continously recorded with an electromagnetic flowmeter and pressure tranducer, respectively.\nAfter an adequate control period, test compounds were injected intraarterially at one log-spaced doses ranging from 0.001 to 10 mcg., in a volume of 0.5 ml and at 5 to 10 minute intervals. Maximum changes in bloodflow, as well as any variations in blood pressure, were tabulated for each dose in absolute values (ml/min. and mmHg). The calculations were made taking as control values those existing immediately before administration of each dose. The direction of the observed change (plus for increase and minus for decrease) was also noted. The dose changing bloodflow by 100 ml/min (ED100 ml/min) was calculated graphically and was used for scoring activity as follows: […]"}, "[2]": {"tested_on": "Blood Pressure and Heart Rate", "test": "Effects on Blood Pressure and Heart Rate in the Anesthetized Cat", "type": "in vivo", "details": "Felis catus, intravenous, 0.01 to 10.0 mcg/kg, scored only on hypotension, read-out: Test D Activity Value (ED50 mmHg, decrease in blood pressure)", "method_in_brief": "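Cats of either sex anesthetized with pentobarbital sodium (35 mg/kg i.v.) plus barbital sodium (100 mg/kg i.v.), femoral arterial pressure and ECG-driven heart rate recorded. Compound given i.v. at one-log increasing doses, 0.01–10.0 mcg/kg, every 10 min. ED50 mmHg (dose lowering blood pressure by 50 mmHg) derived graphically from hypotension.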"}, "[3]": {"tested_on": "Human Platelet Aggregation", "test": "Inhibition of Human Platelet Aggregation", "type": "cell-based", "details": "in vitro", "method": "The ability of test compounds to inhibit platelet aggregation was determined by a modification of the turbidometric technique of Born (Nature, 194:927 [1962]). Blood was collected from human volunteers who had not ingested aspirin or aspirin-containing products within the preceding two weeks in heparinized containers and was allowed to settle for one (1) hour. The platelet rich plasma (prp) supernates were collected and cooled. Siliconized glassware was used throughout.\nIn a representative assay 1.9 ml of PRP and 0.2 ml of test compound at the appropriate concentrations (0.001 to 100 mcgm), or 0.2 ml of distilled water (control procedure) were placed in sample cuvettes. The cuvettes were placed in a 37° C incubation block for 15 minutes, and then in a spectrophotometer linked to a strip chart recorder. After 30-60 seconds, 0.2 ml of a solution, prepared by diluting a calf-skin collagen solution 1:9 with Tyrodes' Solution, was added to each cuvette. Platelet aggregation was evidenced by a decrease in optical density.\nAn ED50 value was then determined graphically."}, "[4]": {"tested_on": "Gastric Secretion", "test": "Effects on Gastric Secretion in the Rat", "type": "in vivo", "details": "pylorus-ligated rat, subcutaneous, 2 x 1.5 mg/kg (total 3.0 mg/kg), 4 hours", "method_in_brief": "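Rats (150-200 g, groups of six) fasted 48 h, pylorus ligated under ether. Compounds given s.c. in phosphate buffer pH 7.38 at 1.5 mg/kg immediately post-surgery and 2 h later (total 3.0 mg/kg). At 4 h, gastric volume and total acid (titration with 0.1 N NaOH, mEq) compared with vehicle controls by t-test.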"}}, "data": [{"smiles": "COC(=O)CCCCCC[C@H]1C(=O)C[C@@H](O)[C@@H]1/C=C/[C@H](O)C1CC2(CCC2)C1", "note": "[TR-4120, Methyl 7-{3R-hydroxy-5-oxo-2R-[3R-hydroxy-3-(spiro[3.3]hept-2-yl)-1E-propenyl]cyclopent-1R-yl}heptanoate]", "values": [{"measurement": "Test C Activity Value (ED100 ml/min, increase in femoral blood flow)", "setting": "[1]", "result": "0 (>10.0)"}, {"measurement": "ED (50 mmHg)", "setting": "[2]", "result": "> 0.01", "unit": "mg/kg"}, {"measurement": "inhibition of aggregation of human platelets, in words", "setting": "[3]", "result": "inhibit aggregation of platelets"}, {"measurement": "Test B Activity Value (% decrease in acidity, inhibition of gastric secretion)", "setting": "[4]", "result": "2 (26-50, significant)"}]}]}
